From patent US20220125745A1, “PHARMACEUTICAL COMPOSITION FOR CO-ADMINISTRATION OF ACIDOSIS-INDUCING DRUG” (HAIM BIO CO., LTD., priority 2018, published 2022)
Where two headings read alike, the source gives them in different places.

Experiments:
[1] = test system: A549 cells (cancer cells); assay: Lactate assay (luminescence) in A549 cells, candidate substance alone or combined with a substance that causes lactic acidosis; assay type: cell-based; details: A549; for Luminescence intensity (%), Berberine (10 μM) − / Luminescence intensity (%), Linezolid (200 μM) − / Luminescence intensity (%), Phenformin (100 μM) − / activity at 50 µM: candidate 50 μM alone, 24 h, vs negative control, mean ± SEM; for activity at 50 µM: Homo sapiens
Protocol: (§1) To identify the effects of administration of the candidate substances for lactic acidosis treatment as described in Example 1 in combination with the above-mentioned substances that cause lactic acidosis, A549 cells (cancer cells) or L132 cells (normal cells) were respectively seeded in 96- or 24-well plates at a concentration of 1×10^4 or 3×10^5 cells/well, and incubation was performed overnight. Administration of the candidate substance for acidosis treatment in combination with the substance that causes lactic acidosis was performed and incubation was further performed for 24 hours. For the candidate substances for acidosis treatment, each substance was administered at a uniform concentration of 50 μM; and for the substances that cause lactic acidosis, metformin was administered at 1 to 100 μM, isoniazid was administered at 1 to 500 μM, berberine was administered at 10 μM, linezolid was administered at 200 μM, and phenformin was administered at 100 μM. All substances were dissolved in dimethyl sulfoxide (DMSO, Sigma-Aldrich Corporation, St. Louis, Mo., USA), and the substances to be administered in combination were administered simultaneously. Subsequently, 50 μl of the cell culture solution obtained by being diluted with Dulbecco's Phosphate-Buffered Saline (DPBS; Wellgene, Korea), and 50 μl of the lactate assay reaction buffer (Promega, Madison, Wis., USA) were mixed and the mixture was added in a 96-well plate. Reaction was allowed to proceed at room temperature for 1 hour. Then, luminescence was measured with a spectrophotometer (Synergy HTX Multi-Reader; BioTek, Winooski, Vt., USA). At the same time, the number of cells in each sample was measured with a cell viability analysis kit (Cell Counting Kit-8; Dojindo Molecular Technologies, Inc., Kumamoto, Japan), and calculation was performed so that the lactic acid measurement value in each sample could be compared with that in the negative control for the same number of cells.

[2] = test system: L132 cells (normal cells); assay: Lactate assay (luminescence) in L132 cells, candidate substance alone or combined with a substance that causes lactic acidosis; assay type: cell-based; details: L132; for Luminescence intensity (%), Berberine (10 μM) − / Luminescence intensity (%), Linezolid (200 μM) − / Luminescence intensity (%), Phenformin (100 μM) − / activity at 50 µM: candidate 50 μM alone, 24 h, vs negative control, mean ± SEM; for activity at 50 µM: Homo sapiens
Protocol: as §1

[3] = candidate 50 μM + berberine 10 μM, relative to berberine alone (PC)
[4] = candidate 50 μM + linezolid 200 μM, relative to linezolid alone (PC)
[5] = candidate 50 μM + phenformin 100 μM, relative to phenformin alone (PC)
[6] = no berberine, read-out: Luminescence intensity (%), Berberine (10 μM) −
[7] = no linezolid, read-out: Luminescence intensity (%), Linezolid (200 μM) −
[8] = no phenformin, read-out: Luminescence intensity (%), Phenformin (100 μM) −

| Structure (SMILES) | Lactic acid value vs. PC (%) [1, 3] | Lactic acid-decreasing rate vs. PC (%) [1, 3] | Lactic acid value vs. PC (%) [1, 4] | Lactic acid-decreasing rate vs. PC (%) [1, 4] | Lactic acid value vs. PC (%) [1, 5] | Lactic acid-decreasing rate vs. PC (%) [1, 5] | Luminescence intensity (%), Berberine (10 μM) − ([1]; no berberine) | Luminescence intensity (%), Linezolid (200 μM) − ([1]; no linezolid) | Lactic acid value vs. PC (%) [2, 3] | Lactic acid-decreasing rate vs. PC (%) [2, 3] | Lactic acid value vs. PC (%) [2, 4] | Lactic acid-decreasing rate vs. PC (%) [2, 4] | Lactic acid value vs. PC (%) [2, 5] | Lactic acid-decreasing rate vs. PC (%) [2, 5] | activity at 50 µM [1, 6] | activity at 50 µM [1, 7] | activity at 50 µM [1, 8] | activity at 50 µM [2, 6] | activity at 50 µM [2, 7] | activity at 50 µM [2, 8] | further results |
| --- | --- | --- | --- | --- | --- | --- | --- | --- | --- | --- | --- | --- | --- | --- | --- | --- | --- | --- | --- | --- | --- |
| Nc1c(O)cccc1C(=O)CC(N)C(=O)O (racemic) [3-hydroxy-DL-kynurenine, 3-Hydroxy-DL-kynurenine] | 92.55% | 7.45% | 83.68% | 16.32% | 91.34% | 8.66% | 91.52 ± 1.46 % | 91.52 ± 1.46 % | 87.31% | 12.69% | 86.39% | 13.61% | 91.76% | 8.24% |  |  |  |  |  |  | Luminescence intensity (%), Phenformin (100 μM) − ([1]; no phenformin): 91.52 ± 1.46 %; Luminescence intensity (%), Berberine (10 μM) − ([2]; no berberine): 87.48 ± 1.65 %; Luminescence intensity (%), Linezolid (200 μM) − ([2]; no linezolid): 87.48 ± 1.65 %; Luminescence intensity (%), Phenformin (100 μM) − ([2]; no phenformin): 87.48 ± 1.65 % |
| CCCCNC(=O)n1c(NC(=O)OC)nc2ccccc21 [Benomyl] | 88.55% | 11.45% | 84.32% | 15.68% | 92.74% | 7.26% |  |  | 85.38% | 14.62% | 84.83% | 15.17% | 93.03% | 6.97% | 87.7 ± 1.21% | 87.7 ± 1.21% | 87.7 ± 1.21% | 85.4 ± 1.55% | 85.4 ± 1.55% | 85.4 ± 1.55% |  |
| N.N.[Cl][Pt][Cl] [CDDP, Cis-diamminedichloridoplatinum] | 74.20% | 25.80% | 78.37% | 21.63% | 80.03% | 19.97% | 75.98 ± 2.34 % | 75.98 ± 2.34 % | 71.42% | 28.58% | 68.28% | 31.72% | 83.98% | 16.02% |  |  |  |  |  |  | Luminescence intensity (%), Phenformin (100 μM) − ([1]; no phenformin): 75.98 ± 2.34 %; Luminescence intensity (%), Berberine (10 μM) − ([2]; no berberine): 76.97 ± 2.13 %; Luminescence intensity (%), Linezolid (200 μM) − ([2]; no linezolid): 76.97 ± 2.13 %; Luminescence intensity (%), Phenformin (100 μM) − ([2]; no phenformin): 76.97 ± 2.13 % |
| CS(=O)(=O)Nc1ccc(-c2coc3cc(OCc4cccc(C(=O)O)c4)ccc3c2=O)cc1 [CVT-10216, 3-[[[3-[4-[(methylsulfonyl)amino]phenyl]-4-oxo-4H-chromen-7-yl]oxy]methyl]benzoic acid] | 95.79% | 4.21% | 92.93% | 7.07% | 92.13% | 7.87% |  |  | 103.15% | −3.15% | 100.28% | −0.28% | 99.21% | 0.79% | 96.5 ± 1.04% | 96.5 ± 1.04% | 96.5 ± 1.04% | 97.7 ± 1.1% | 97.7 ± 1.1% | 97.7 ± 1.1% |  |
| CCCNC(=O)NS(=O)(=O)c1ccc(Cl)cc1 [Chlorpropamide] | 90.69% | 9.31% | 86.81% | 13.19% | 94.87% | 5.13% |  |  | 102.38% | −2.38% | 90.11% | 9.89% | 96.68% | 3.32% | 97 ± 1.24% | 97 ± 1.24% | 97 ± 1.24% | 92.4 ± 1.05% | 92.4 ± 1.05% | 92.4 ± 1.05% |  |
| CC(C)=CCCC(C)=CC=O [Citral] | 95.67% | 4.33% | 103.20% | −3.20% | 93.80% | 6.20% |  |  | 102.03% | −2.03% | 102.02% | −2.02% | 99.57% | 0.43% | 100.5 ± 0.81% | 100.5 ± 0.81% | 100.5 ± 0.81% | 102.4 ± 0.98% | 102.4 ± 0.98% | 102.4 ± 0.98% |  |
| N#CN [Cyanamide] | 96.56% | 3.44% | 87.76% | 12.24% | 98.83% | 1.17% |  |  | 99.86% | 0.14% | 88.99% | 11.01% | 98.19% | 1.81% | 97.02 ± 0.81% | 97.02 ± 0.81% | 97.02 ± 0.81% | 92.1 ± 1.56% | 92.1 ± 1.56% | 92.1 ± 1.56% |  |
| CCN(CC)c1ccc(C=O)cc1 [DEAB, Diethylaminobenzaldehyde] | 91.95% | 8.05% | 87.66% | 12.34% | 94.28% | 5.72% | 96.72 ± 0.78 % | 96.72 ± 0.78 % | 106.10% | −6.10% | 105.21% | −5.21% | 92.79% | 7.21% |  |  |  |  |  |  | Luminescence intensity (%), Phenformin (100 μM) − ([1]; no phenformin): 96.72 ± 0.78 %; Luminescence intensity (%), Berberine (10 μM) − ([2]; no berberine): 93.41 ± 2.71 %; Luminescence intensity (%), Linezolid (200 μM) − ([2]; no linezolid): 93.41±2.71%; Luminescence intensity (%), Phenformin (100 μM) − ([2]; no phenformin): 93.41 ± 2.71 %; Increase of lactic acid level as compared to the positive control group ([2]; in combination with linezolid, stated in text as an increase): 5.21% |
